Assay results reported in patent publication US11241402B2, “Methods of treating liver fibrosis by administering 3-bromopyruvate” (The Johns Hopkins University, priority 2015, dated 2022).
“Also recorded” adds a separate entry of the source.

Tests used:
activated LX-2 cells [1] = test: Metronomic therapy of activated-LX-2 cells: morphology / phenotype; assay type: cell-based, human; details: for change in morphology / phenotype of aLX-2 cells: monotherapy, metronomic: 3-BrPA 25 μM or AICAR 0.5 mM
Text: LX-2, a human stellate cell line, was a gift of Dr. Scott L. Friedman from the Mount Sinai School of Medicine (New York, N.Y., USA). The LX-2 cells when cultured on plastic are active in fibrogenesis (Gaca et al., 2003), and these activated LX-2 cells were used in most experiments. De-activated (quiescent) LX-2 cells prepared by culturing the LX-2 cells on Matrigel (Gaca et al., 2003; Sohara et al., 2002; Troeger et al., 2012) were used as controls. The activated and de-activated LX-2 cells were then cultured in Dulbecco's Modified Eagle's Medium (DMEM) containing 10% FBS, 0.1% antibiotic (Penicillin-Streptomycin) and 0.1% Fungizone on plastic as described previously (Tang et al., 2003). Rat hepatic stellate cells were
(§1) To analyze the effect of 3-BrPA on activated-LX-2 cells, the principle of metronomic therapy, a repeated but low, nonlethal dose of 3-BrPA ([…]) was adopted. A known number of cells were plated in 6-well plates, 10 cm petri dishes or chamber slides as required and the culture media was replaced with fresh culture media containing the drug(s) on alternative days. The cells were treated for a period of 13 days for immunofluorescence studies and 6 days for all other studies including biochemical analysis. Monotherapy involved treating the cells with 3-BrPA alone or AICAR (0.5 mM) in DMEM with 2.5% FBS. The concentration of AICAR was chosen based on the prior reports (Lim et al., 2012). Combination therapy involved using half of the dose used for the monotherapy of AICAR and 3-BrPA.

activated-LX-2 cells = test: Determination of nontoxic maximum tolerated dose (cell viability, Trypan-blue exclusion or intracellular ATP); assay type: cell-based, human; details: maximum dose allowing more than 50% survival; 5-50 μM tested for 24, 48 and 72 hours
Description: To determine the nonlethal, maximum tolerated dose (MTD) of 3-BrPA for activated-LX-2 cells, the cell viability was assessed using either Trypan-blue exclusion or quantification of intracellular ATP level. The later was performed using the Cell-Titer Glo Assay kit (Promega Corp., Madison, Wis.) and the FLUOstar Omega plate reader (BMG Labtech, UK). In brief, cells plated in 96-well flatbottomed opaque plates were treated with different concentrations of 3-BrPA (5 μM, 10 μM, 25 μM and 50 μM) for 24, 48 and 72 hours followed by the quantification of intracellular ATP. The maximum dose of 3-BrPA that allowed more than 50% survival (a concentration <IC50) was selected for further experiments.

[2] = tested on: human primary hepatocytes; test: Morphology and cell viability of human primary hepatocytes at the metronomic dose; assay type: cell-based
Description: (§2) isolated and cultured as described previously (Anania et al., 1996). Human primary hepatocytes were obtained from Invitrogen and cultured in William's medium (without phenol red) along with plating and maintenance supplements.
as §1

activated LX-2 cells [3] = test: Immunofluorescence / immunoblot of profibrogenic markers (α-SMA, CK-18); assay type: cell-based, human; details: aLX-2 cells
Description: as §1
LX-2 cells were grown in chamber slides in the same media used for culture. […]
For western blotting, control and treated cells were washed in PBS, lysed in RIPA lysis buffer (Sigma-Aldrich) with a protease inhibitor cocktail and a phosphatase inhibitor cocktails (both from Sigma-Aldrich) at 4° C. using a dounce homogenizer. […] The clear supernatants were collected and the protein concentrations were analyzed using a 2-D Quant protein assay Kit (GE Healthcare) as described (Ganapathy-Kanniappan et al., 2009a). […]

activated LX-2 cells [4] = test: Gelatin zymography for MMP activity in conditioned medium, verified by immunoblot; assay type: cell-based, human; details: aLX-2 cells, zymogram and immunoblots
Description: as §1
The level of MMP activity in the conditioned medium of control and treated LX-2 cells and/or rat HSCs was quantified by gelatin zymography. In brief, upon the completion of drug treatment protocol, media from both control and treated cells were removed, cells were rinsed with PBS and replaced with serum-free DMEM media and cultured overnight at 37° C. prior to the collection of media containing secreted proteins for further analysis. […]

activated LX-2 cells [5] = test: Collagen staining (trichrome) and collagen mRNA by qRT-PCR; assay type: cell-based, human; details: aLX-2 cells
Description: Gene expression analysis was performed by using qRT-PCR with a sequence detection system (ABI 7900HT; Applied Biosystems, Bedford, Mass., USA). The total RNA was extracted and the cDNA thus synthesized were subjected to qRT-PCR analysis using SYBR Green PCR Kit (Applied Biosystems) for genes associated with invasiveness and motility like Vimentin (VIM), Cadherin-12 (CDH12), Snail (SNAI1), Transgelin (TGN) (31-33) and TaqMan PCR Kit for Coll1α (Mm 00801666_g1). The primers used for respective gene amplification were synthesized by RealTimePrimers.com (Elkins Park, Pa., USA) or Life Technologies (Coll1α): […]
Tissue sections were deparaffinized in xylene followed by rehydration through graded series of alcohol followed by staining for collagen using Masson's Trichrome stain (Sigma Aldrich, St. Louis, Mo.) or Sirius Red stain (PolySciences. Inc Warrington, Pa.). For in vitro studies, the LX-2 cells were grown in chamber slides containing appropriate growth medium. They were fixed with 4% formaldehyde for 10 minutes, rapidly rehydrated with Phosphate-buffered saline (PBS), following which, the staining was performed.

[6] = tested on: rat hepatic stellate cells; test: Fibrotic markers in rat hepatic stellate cells (confocal α-SMA, MMP-9 immunoblot); assay type: cell-based
Text: as §2
The level of MMP activity in the conditioned medium of control and treated LX-2 cells and/or rat HSCs was quantified by gelatin zymography. In brief, upon the completion of drug treatment protocol, media from both control and treated cells were removed, cells were rinsed with PBS and replaced with serum-free DMEM media and cultured overnight at 37° C. prior to the collection of media containing secreted proteins for further analysis. The media thus collected were concentrated using a 3000 Da centrifugal filter (Amicon Inc., Pineville, N.C., USA) at 2500 rpm for 30 minutes at 4° C. and then stored at −80° C. until further analysis. Protein (˜10 μg) samples from the conditioned media of control and treated cells were subjected to zymography as described (Kunjithapatham et al., 2014). The MMP activity was visualized as clear bands. The identity of the MMP associated with zymogram signal (activity) was verified by immunoblot analysis.

activated LX-2 cells [7] = test: Energy metabolism markers (immunofluorescence, immunoblot, lactate secretion); assay type: cell-based, human; details: aLX-2 cells
Description: as §1
LX-2 cells were grown in chamber slides in the same media used for culture. They were fixed with 4% formaldehyde for 10 minutes, rapidly rehydrated with Phosphate-buffered saline (PBS) and permeabilized with a 0.20% Triton X-100 solution in PBS for imaging of MCT-1, MCT-4 and ATPSE. The cells were incubated with primary antibodies in PBS for 1 hour at room temperature in a humidified chamber. They were then washed and incubated at room temperature with secondary antibody labeled with Texas Red
For western blotting, control and treated cells were washed in PBS, lysed in RIPA lysis buffer (Sigma-Aldrich) with a protease inhibitor cocktail and a phosphatase inhibitor cocktails (both from Sigma-Aldrich) at 4° C. using a dounce homogenizer. The lysates were centrifuged at 12,000×g for 15 min at 4° C. to remove any cell debris. The clear supernatants were collected and the protein concentrations were analyzed using a 2-D Quant protein assay Kit (GE Healthcare) as described (Ganapathy-Kanniappan et al., 2009a). In brief, protein samples were resolved on a 4-12% Bis-Tris gel by electrophoresis with MOPS buffer or via 12% Bis-Tris gel electrophoresis with MES running buffer (for low molecular weight targets) and blotted onto PVDF membranes (BioRad, Hercules, Calif., USA) followed by immunoblotting with specific antibodies. Immune complexes were visualized by ECL-detection kit (GE Health Care).

NC(=O)c1ncn([C@@H]2O[C@H](CO)[C@@H](O)[C@H]2O)c1N [AICAR, reference compound]
change in morphology / phenotype of aLX-2 cells (activated LX-2 cells [1]): did not induce any change in morphology

O=C(O)C(=O)CBr [3-BrPA, 3-bromopyruvate]
MTD (nonlethal, maximum tolerated dose) in aLX-2 cells (activated-LX-2 cells): 25 µM
stability of phenotypic changes after withdrawal of the drug (activated LX-2 cells [1]; aLX-2 cells, 6 days post-treatment): stable, even after withdrawal of the drug
change in morphology of aLX-2 cells in the presence of AICAR (activated LX-2 cells [1]; combination of 3-BrPA and AICAR, half of the monotherapy doses): promoted the changes even in the presence of AICAR
change in morphology / phenotype of aLX-2 cells (activated LX-2 cells [1]): induced changes in phenotype including an elongated, spindle-shaped morphology
sensitivity / cell viability / toxicity, human primary hepatocytes ([2]; 3-BrPA 25 μM, in vitro): not sensitive; also recorded: not toxic; also recorded: remained unaffected
morphological change of human primary hepatocytes ([2]; same metronomic dose (25 μM)): did not under go any morphological change
level of CK-18 (activated LX-2 cells [3]; immunofluorescence): prominent decrease
level of α-SMA (activated LX-2 cells [3]; immunofluorescence and immunoblot): reduced
secretion of MMPs (MMP-2, MMP-9) (activated LX-2 cells [4]): elevated
α1 (I) collagen mRNA (activated LX-2 cells [5]): decreased
collagen (trichrome staining) (activated LX-2 cells [5]; text says liver collagen): decreased
α-SMA in rat hepatic stellate cells ([6]; confocal microscopic images): decrease
secretion of MMP-9 in rat hepatic stellate cells ([6]; immunoblot): increase
expression level of lactate transporter MCT-4 (activated LX-2 cells [7]): increased
expression of ATPSE (F1-F0 ATPase) (activated LX-2 cells [7]): significantly downregulated
expression of MCT-1 (activated LX-2 cells [7]): unaffected
level of lactate secretion (activated LX-2 cells [7]): increased
expression level of lactate dehydrogenase (LDH) (activated LX-2 cells [7]; immunoblot): increased
toxicity to mouse hepatocytes (mouse hepatocytes): not toxic
